Data published in patent US20260285853A1, “COMPOUNDS AND METHODS FOR MODULATING SPLICING” (REMIX THERAPEUTICS INC., priority 2023, published 2026).
Read-outs that look alike come from different tables or passages of the source.

Experiments:
Format in all cases: cell-based
HTT mRNA [1] = assay: Gene panel canonical junction qPCR assay, decrease in CJ mRNA, Table 3
Outline: (§1)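 Canonical exon-junction (CJ) transcript measured by 5′ nuclease RT-qPCR, normalized to GAPDH, GUSB or PPIA and to DMSO control (2^(−ΔΔCt)). A673 or K562 cells treated 24 h at 37° C with an 11-point 3-fold dilution series, top 10 uM, DMSO ≤0.25%. IC50 from 4-parameter logistic fit of percentage CJ decrease.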

MYB mRNA [2] = assay: as above
Outline: as §1

HTT mRNA [3] = assay: Splicing RT-qPCR assay (THP), Table 2A
MYB mRNA [4] = assay: Splicing RT-qPCR assay (THP), Table 2A
[5] = system: SH-SY5Y (human neuroblastoma) cells; assay: Cell viability, Cell Titer Glo 2.0 assay; settings: read-out: Viability SHSY5Y.3 GI50
Outline: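 SH-SY5Y cells were exposed to serially diluted compounds in IMDM with 10% FBS and 0.1% DMSO for 72 hours at 37° C., 5% CO2. Viability was measured by CellTiter-Glo 2.0 luminescence, with medium-only wells as blank.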

[6] = decrease in canonical junction (CJ) mRNA, gene panel qPCR, Table 3
[7] = Table 2A (THP), AJ mRNA increase, read-out: HTT AJ (increase in alternative junction mRNA, AC50)
[8] = Table 2A (THP), CJ mRNA decrease, read-out: HTT CJ (decrease in canonical junction mRNA, IC50)
[9] = Table 2A (THP), AJ mRNA increase, read-out: MYB AJ (increase in alternative junction mRNA, AC50)
[10] = Table 2A (THP), CJ mRNA decrease, read-out: MYB CJ (decrease in canonical junction mRNA, IC50)
[11] = decrease in CJ mRNA levels, canonical junction qPCR, gene panel
[12] = Table 2A, THP, HTT alternative junction (AJ) mRNA, read-out: HTT AJ (AC50, increase in alternative junction mRNA)
[13] = Table 2A, THP, HTT canonical junction (CJ) mRNA, read-out: HTT CJ (IC50, decrease in canonical junction mRNA)
[14] = Table 2A, THP, MYB alternative junction (AJ) mRNA, read-out: MYB AJ (AC50, increase in alternative junction mRNA)
[15] = Table 2A, THP, MYB canonical junction (CJ) mRNA, read-out: MYB CJ (IC50, decrease in canonical junction mRNA)

IC50 (HTT mRNA [1]; [6]) [µM]	IC50 (MYB mRNA [2]; [6]) [µM]	IC50 (HTT mRNA [3]; [8]) [µM]	IC50 (MYB mRNA [4]; [10]) [µM]	GI50 [5] [µM]	IC50 (HTT mRNA [1]; [11]) [µM]	IC50 (MYB mRNA [2]; [11]) [µM]	IC50 (HTT mRNA [3]; [13]) [µM]	IC50 (MYB mRNA [4]; [15]) [µM]	SMILES	AC50 (HTT mRNA [3]; [7]) [µM]	AC50 (MYB mRNA [4]; [9]) [µM]	AC50 (HTT mRNA [3]; [12]) [µM]	AC50 (MYB mRNA [4]; [14]) [µM]
–	–	–	–	0.1 to 1	0.1 to 1	< 0.1	0.1 to 1	< 0.1	COCc1cc2c(N3CCC(NC4CC4)CC3)ccc(C(=O)Nc3cc(F)c4nc(C)cn4c3)n2n1 [Compound 620, 4-[4-(cyclopropylamino)-1-piperidyl]-N-(8-fluoro-2-methyl-imidazo[1,2-a]pyridin-6-yl)-2-(methoxymethyl)-pyrazolo[1,5-a]pyridine-7-carboxamide]	–	–	0.1 to 1	0.1 to 1
> 10	> 10	> 10	> 10	1 to 10	–	–	–	–	Cn1cc2c(N3CCC(NC4CC4)CC3)cc(F)c(C(=O)Nc3ccc4c(c3)B(O)OC4)c2n1 [Compound 482, 4-[4-(cyclopropyl-amino)-1-piperidy1]-6-fluoro-N-(1-hydroxy-3H-2,1-benzoxaborol-6-y1)-2-methyl-indazole-7-carboxamide 2,2,2-trifluoroacetate]	> 10	> 10	–	–
1 to 10	1 to 10	1 to 10	1 to 10	0.1 to 1	–	–	–	–	Cc1cc2cc(NC(=O)c3ccc(N4CCC(NC5CC5)CC4)c4cn(C)nc34)n(C)c2c(C)n1 [Compound 469, 4-[4-(cyclopropyl-amino)-1-piperidyl]-2-methyl-N-(1,5,7-trimethyl-pyrrolo[2,3-c]-pyridin-2-yl)indazole-7-carboxamide]	1 to 10	1 to 10	–	–
–	–	–	–	< 0.1	< 0.1	< 0.1	< 0.1	< 0.1	COc1cc2c(N3CCC(NC4CC4)CC3)ccc(C(=O)Nc3cc(F)c4nc(C)cn4c3)n2n1 [Compound 689, 4-[4-(cyclopropylamino)-1-piperidyl]-N-(8-fluoro-2-methyl-imidazo[1,2-a]pyridin-6-yl)-2-methoxy-pyrazolo[1,5-a]pyridine-7-carboxamide]	–	–	0.1 to 1	< 0.1
–	–	–	–	1 to 10	> 10	> 10	> 10	> 10	Cc1cn2cc(NC(=O)c3ccc(N4CCC(NC5CC5)CC4)c4cn(C)nc34)nc2c(CNC2(C)COC2)n1 [Compound 804, 4-[4-(cyclopropylamino)-1-piperidyl]-2-methyl-N-[6-methyl-8-[[(3-methyloxetan-3-yl)amino]methyl]imidazo[1,2-a]pyrazin-2-yl]indazole-7-carboxamide]	–	–	> 10	> 10
–	–	–	–	> 10	> 10	1 to 10	> 10	1 to 10	Cc1cn2cc(NC(=O)c3ccc(N4CCC(NC5CC5)CC4)c4cn(C)nc34)nc2c(CCS(C)(=O)=O)n1 [Compound 702]	–	–	> 10	1 to 10
1 to 10	1 to 10	1 to 10	1 to 10	1 to 10	–	–	–	–	Cc1cn2cc(NC(=O)c3ccc(N4CCC(NC5CC5)CC4)c4cn(C)nc34)cc(Oc3ccnnc3)c2n1 [Compound 322, 4-[4-(cyclopropyl-amino)-1-piperidyl]-2-methyl-N-(2-methyl-8-pyridazin-4-yloxy-imidazo[1,2-a]-pyridin-6-yl)-indazole-7-carboxamide]	1 to 10	1 to 10	–	–
> 10	0.1 to 1	> 10	0.1 to 1	0.1 to 1	–	–	–	–	COc1cc2nc(C)cn2cc1NC(=O)c1c(F)cc(N2CCC(NC3CC3)CC2)c2cn(C)nc12 [Compound 395, 4-[4-(cyclopropylamino)-1-piperidyl]-6-fluoro-N-(7-methoxy-2-methyl-imidazo[1,2-a]pyridin-6-yl)-2-methyl-indazole-7-carboxamide]	> 10	< 0.1	–	–

Second part, the compound before the results:

SMILES	IC50 (HTT mRNA [1]; [6]) [µM]	IC50 (MYB mRNA [2]; [6]) [µM]	IC50 (HTT mRNA [3]; [8]) [µM]	IC50 (MYB mRNA [4]; [10]) [µM]	GI50 [5] [µM]	IC50 (HTT mRNA [1]; [11]) [µM]	IC50 (MYB mRNA [2]; [11]) [µM]	IC50 (HTT mRNA [3]; [13]) [µM]	IC50 (MYB mRNA [4]; [15]) [µM]	AC50 (HTT mRNA [3]; [7]) [µM]	AC50 (MYB mRNA [4]; [9]) [µM]	AC50 (HTT mRNA [3]; [12]) [µM]	AC50 (MYB mRNA [4]; [14]) [µM]
COc1cc2nn(C)cc2cc1NC(=O)c1ccc(OC2CCNCC2)c2cn(C)nc12 [Compound 566]	0.1 to 1	0.1 to 1	0.1 to 1	0.1 to 1	1 to 10	–	–	–	–	1 to 10	0.1 to 1	–	–
COc1nc2c(C(=O)Nc3cc(F)c4nn(C)cc4c3)ccc(N3CCNC(C)C3C)c2s1 (centres unmarked) [Compound 771, 7-(2,3-dimethylpiperazin-1-yl)-N-(7-fluoro-2-methyl-indazol-5-yl)-2-methoxy-1,3-benzothiazole-4-carboxamide]	–	–	–	–	0.1 to 1	1 to 10	0.1 to 1	1 to 10	0.1 to 1	–	–	> 10	0.1 to 1
COc1c(NC(=O)c2c(F)cc(N3CC[C@H](NC4CC4)C4(CC4)C3)c3cn(C)nc23)cn2cc(C)nc2c1F [Compound 367, 4-[(8S)-8-(cyclopropylamino)-5-azaspiro[2.5]octan-5-yl]-6-fluoro-N-(8-fluoro-7-methoxy-2-methyl-imidazo[1,2-a]pyridin-6-yl)-2-methyl-indazole-7-carboxamide]	1 to 10	< 0.1	1 to 10	< 0.1	0.1 to 1	–	–	–	–	1 to 10	< 0.1	–	–
Cc1cn2cc(NC(=O)c3ccc(N4CCC(NC5CC5)CC4)c4cn(C)nc34)nc2c(Cn2cnc3c(N)ncnc32)n1 [Compound 830]	–	–	–	–	> 10	> 10	> 10	> 10	> 10	–	–	> 10	> 10
CCNC1CCN(c2ccc(C(=O)Nc3cc(CCC(=O)N(C)C)c4nn(C)cc4c3)c3nn(C)cc23)CC1 [Compound 877]	–	–	–	–	> 10	> 10	> 10	> 10	> 10	–	–	> 10	> 10
CCNC1CCN(c2cc(F)c(C(=O)Nc3cn4cc(C5CC5)nc(C)c4n3)c3nn(C)cc23)CC1 [Compound 346, N-(6-cyclopropyl-8-methyl-imidazo[1,2-a]pyrazin-2-yl)-4-(4-(ethylamino)-piperidin-1-yl)-6-fluoro-2-methyl-2H-indazole-7-carboxamide bis(2,2,2-trifluoroacetate)]	> 10	> 10	> 10	> 10	1 to 10	–	–	–	–	> 10	> 10	–	–
CCNC1CCN(c2cc(F)c(C(=O)Nc3cn4ccnc4cc3OC)c3nn(C)cc23)CC1 [Compound 701, 4-[4-(ethylamino)-1-piperidyl]-6-fluoro-N-(7-methoxyimidazo[1,2-a]pyridin-6-yl)-2-methyl-indazole-7-carboxamide]	–	–	–	–	> 10	> 10	0.1 to 1	> 10	0.1 to 1	–	–	> 10	0.1 to 1
Cc1cn2cc(NC(=O)c3c(F)cc(N4CCC(N)CC4)c4cn(C)nc34)nc2c(C)n1 [Compound 347, 4-(4-aminopiperidin-1-yl)-N-(6,8-dimethylimidazo[1,2-a]pyrazin-2-yl)-6-fluoro-2-methyl-2H-indazole-7-carboxamide 2,2,2-trifluoroacetate]	1 to 10	< 0.1	1 to 10	< 0.1	1 to 10	–	–	–	–	1 to 10	< 0.1	–	–
COc1cn2nc(C)cc2cc1C(=O)Nc1ccc(N2CCNCC2)c2cn(C)nc12 [Compound 488, 6-methoxy-2-methyl-N-(2-methyl-4-piperazin-1-yl-indazol-7-yl) pyrazolo[1,5-a]pyridine-5-carboxamide]	> 10	> 10	> 10	> 10	> 10	–	–	–	–	> 10	> 10	–	–
Cc1cc2oc(NC(=O)c3c(F)cc(N4CCC(NC5CC5)CC4)c4cn(C)nc34)cc2c(C)n1 [Compound 491, 4-[4-(cyclopropylamino)-1-piperidyl]-N-(4,6-dimethyl-furo[3,2-c]pyridin-2-yl)-6-fluoro-2-methyl-indazole-7-carboxamide]	> 10	> 10	> 10	> 10	1 to 10	–	–	–	–	> 10	> 10	–	–
COc1cc2nn(C)cc2cc1NC(=O)c1ccc(NC2CCCNCC2)c2cn(C)nc12 (centres unmarked) [Compound 547]	1 to 10	1 to 10	1 to 10	1 to 10	> 10	–	–	–	–	1 to 10	1 to 10	–	–
COc1nc2c(C(=O)Nc3cc(F)c4nn(C)cc4c3)ccc(N3CCN[C@H](C)C3)c2s1 [Compound 765]	–	–	–	–	0.1 to 1	0.1 to 1	< 0.1	0.1 to 1	< 0.1	–	–	0.1 to 1	< 0.1
